Test results as given in patent publication US20240398787A1, “TREATMENT OF MAJOR DEPRESSIVE DISORDER” (AbbVie Inc., priority 2021, published 2024).

Tested on: patients with major depressive disorder (MDD)
Assay: Hamilton Depression Rating Scale-17 (HAMD-17) total score, Clinical Study A
Format: in vivo, human
Conditions: ANCOVA and LOCF; for LSMD vs placebo, HAMD-17: week 6
Description: A global, multicenter, randomized, double-blind (DB), placebo-controlled, parallel-group, fixed-dose study compared cariprazine 1.5 mg/day and cariprazine 3 mg/day with placebo as an adjunctive treatment to ongoing ADT in outpatients with a diagnosis of MDD (via the Diagnostic and Statistical Manual of Mental Disorders, Fifth Edition [DSM-5]) having an inadequate response, as measured by the modified Antidepressant Treatment Response Questionnaire (ATRQ), to 1 to 3 antidepressants administered during the current episode at an adequate dose and adequate duration. Adequate dose was defined as a dose above the minimum labeled dose (per package insert). Adequate duration was defined as continuous ADT treatment for at least 6 weeks, with a minimum of 3 of 6 weeks above the minimal dose.
The study consisted of up to 14 days screening (with up to an additional 7 days of needed) and washout of prohibited medications followed by 6 weeks of double-blind (DB) treatment followed by a 4-week safety follow-up. At the end of the screening period, patients meeting the entry criteria for the study were randomized (1:1:1) to 1 of 3 double-blind treatment groups. Study treatment groups were: cariprazine 1.5 mg/day+antidepressant therapy and cariprazine 3 mg/day+antidepressant therapy. The control group received matching placebo+antidepressant therapy.
Dosage/Dose Regimen: Investigational product (cariprazine or placebo) in the form of capsules packaged in blister packs will be provided. No investigational product was administered during the screening/washout period; patients continued the same antidepressant and dose they were on at screening. Patients were taking more than one antidepressant at screening, regardless of the indication, discontinued all other antidepressants prior to baseline (Visit 2). During the double-blind treatment period (6 weeks), patients were administered 1 capsule orally per day in addition to their ongoing ADT. Patients in the 1.5 mg/day+ADT arm were administered 1.5 mg+ADT starting at Visit 2 (Week 0). Patients in the 3 mg/day+ADT arm were administered 1.5 mg+ADT starting at Visit 2 (Week 0) for 2 weeks and then titrate to 3 mg/day+ADT starting at Visit 4 (Week 2). Patients were supplied with identically appearing capsules of either cariprazine 1.5 mg, cariprazine 3 mg, or placebo.
A randomized, double-blind, placebo-controlled, multicenter trial with 759 participants was conducted in United States, Bulgaria, Estonia, Germany, Hungary, Ukraine, and the United Kingdom. […]

CN(C)C(=O)N[C@H]1CC[C@H](CCN2CCN(c3cccc(Cl)c3Cl)CC2)CC1 [Cariprazine, trans-N-{4-[2-[4-(2,3-dichlorophenyl)piperazin-1-yl]ethyl]cyclohexyl}-N′,N′-dimethylurea]
LS mean change from baseline to week 6, HAMD-17 total score (1.5 mg/d + ADT): −12.7
LSMD vs placebo, HAMD-17 (1.5 mg/d + ADT): −2.1
LS mean change from baseline to week 6, HAMD-17 total score (3 mg/d + ADT): −11.9
LSMD vs placebo, HAMD-17 (3 mg/d + ADT): −1.2
